Laboratory results taken from US6682892B2, “Method for treating herpes viruses” (priority 2000, dated 2004).
Read-outs that look alike come from different tables or passages of the source.

Tests used:
Type in all cases: cell-based
HSV-1 Patton = experiment: Plaque reduction assay, HSV-1 Patton; conditions: Table 1, plaque reduction, Vero cells
Protocol: (§1) Antiviral activity of compounds against herpesviruses such as HSV-1, HSV-2, or HCMV can be measured using plaque reduction assays. 0.1 ml of media containing approximately 50 PFU of virus is added to each well of a 24-well cell culture dish containing a confluent monolayer of cells (Vero cells for HSV-1 and HSV-2, HFF cells for HCMV). Compounds are dissolved in 100% DMSO and diluted in 100% DMSO as 200× stocks of the desired final drug concentration. Typically 5-6 two-fold dilutions are prepared for each compound. Dilutions of compounds are then added to media containing 0.8% CMC resulting in a final 1× drug concentration. After the virus-infected cells have incubated for 1 h at 37° C., the virus innoculum is removed and 1 ml of media containing 0.8% CMC and the various concentrations of compound is added to each well of the dish. The dish is incubated at 37° C. for approximately 2-3 days (HSV-1 and HSV-2) or 6-9 days (HCMV) to allow sufficient growth of virus to form plaques in the cell monolayer. Plaques can be observed and counted microscopically or by staining the cells with 0.1% crystal violet in 20% ethanol. […] Antiviral activity of a compound is expressed as the concentration of compound predicted to reduce the number of plaques in a well by 50% (IC50). The IC50 values are calculated by plotting the per cent inhibition vs. concentration of compound using EXCEL software for linear regression.
(§2) A panel of viruses consisting of four strains of HSV-1 (KOS, F, DJL, Patton) and three strains of HSV-2 (MS, 35D, 186) are tested in a plaque reduction assay against four different 4-oxo-DHQ compounds (#1, 2, 4, 5 as shown in FIG. 1), and one 4-oxo-DHTP compound (#3 as shown in FIG. 1) and against Acyclovir. The six drugs inhibited replication of the seven virus strains with IC50 values ranging from 2-10 μM (Table 1). In order to select for 4-oxo-DHQ resistant mutants, HSV-1 strains KOS, F, and DJL along with HSV-2 strains 186 and MS are serially passaged in the presence of 20 uM compound 1. Following the seventh passage, 4-oxo-DHQ resistant virus from each strain are plaque purified three times and high-titer stocks are made.

HSV-2 35D = experiment: Plaque reduction assay, HSV-2 35D; conditions: Table 1, plaque reduction, Vero cells
Protocol: as §1, §2

HSV-1 DJL = experiment: Plaque reduction assay, HSV-1 DJL; conditions: Table 1, plaque reduction, Vero cells
Protocol: as §1, §2

[1] = system: HCMV AD169-M1 (V823A, V824L); experiment: Plaque reduction assay, 4-oxo-DHQ resistant HCMV AD169-M1; conditions: Table 5, mutant selected for 4-oxo-DHQ resistance; read-out: Plaque Reduction Assay - IC50 (μM) HCMV AD169-M1
Protocol: as §1
A plasmid containing the wild-type HCMV polymerase gene is modified to contain the V823A or V823A and V824L mutations using a site-directed mutagenesis Kit (Stratagene Corp.) and following the manufactures's protocol. HFF cells are plated into T25 tissue culture flasks to achieve 80% confluency at the time of the transfection. Wild type HCMV AD 169 DNA and plasmid DNA containing the mutant HCMV polymerase gene are mixed at a ratio of 1:2 (2 ug of viral DNA to 4 ug of plasmid DNA). DNA's are transfected using superfect transfection reagent according to methods recommended by the manufacturer (Quiagen Inc.). Cells are harvested five days posttransfection, freeze-thawed to release virus and half of the sample is used to infect HFF cell monolayers. Cells are overlayed with media containing 20 uM 4-oxo-DHQ compound 2 (see FIG. 1). Serial passage is repeated seven times in the presence of 20 uM compound 2 and virus isolates are then plaque purified three times prior to preparation of viral stock.
In order to isolate an HCMV resistant mutant marker rescue experiments are done. Plasmids containing the mutant polymerase genes are transfected into HFF cells along with wild type HCMV AD169 DNA. The resulting virus is then serially passaged in the presence of 20 uM compound 1 (see FIG. 1). A 4-oxo-DHQ resistant virus is isolated from marker rescue studies done with the HCMV polymerase gene containing mutations that result in the V823A, V824L amino acid changes, but not with the gene containing V823A change alone.

HSV-2 186 = experiment: Plaque reduction assay, HSV-2 186; conditions: Table 1, plaque reduction, Vero cells
Protocol: as §1, §2

HSV-1 KOS-M1 (V823A) = experiment: Plaque reduction assay, 4-oxo-DHQ resistant HSV-1 KOS-M1; conditions: Table 5, mutant selected for 4-oxo-DHQ resistance; read-out: Plaque Reduction Assay - IC50 (μM) HSV-1 KOS-M1
Protocol: as §1
(§3) Vero cells are plated out at a density of 3.5×10^5 cells per well in a six well tissue culture plate. Cells are infected with HSV-1 KOS at a multiplicity of infection (moi) of 0.1 pfu/cell and 1 h post infection the cells are overlayed with 3 ml media containing 20 uM of a 4-oxo-DHQ. Cultures are incubated for 20 h at 37° C., freeze/thawed to release cell-associated virus, and 0.1 ml of culture is used to infect a new monolayer of Vero cells (one passage). Serial passage is repeated seven times in the presence of 20 uM drug. Virus isolates are then plaque purified three times prior to preparation of stocks. 4-oxo-DHQ resistant HSV-1 and HSV-2 may also be selected by the marker transfer method described below using wild-type HSV DNA and the corresponding mutant HSV polymerase gene.
as §2

HSV-2 MS-M1 (V826A) = experiment: Plaque reduction assay, 4-oxo-DHQ resistant HSV-2 MS-M1; conditions: Table 5, mutant selected for 4-oxo-DHQ resistance; read-out: Plaque Reduction Assay - IC50 (μM) HSV-2 MS-M1
Protocol: as §1, §3, §2

HCMV AD169 = experiment: Plaque reduction assay, HCMV AD169; conditions: Table 5, wild type strain; read-out: Plaque Reduction Assay - IC50 (μM) HCMV AD169
Protocol: as §1

HSV-1 KOS = experiment: Plaque reduction assay, HSV-1 KOS
Protocol: as §1, §2

HSV-1 F = experiment: Plaque reduction assay, HSV-1 F; conditions: Table 1, plaque reduction, Vero cells
Protocol: as §1, §2

HSV-2 MS = experiment: Plaque reduction assay, HSV-2 MS
Protocol: as §1, §2

Cn1cc(C(=O)NCc2ccc(Cl)cc2)c(=O)c2cc(CN3CCOCC3)sc21 [Compound 3]
IC50 (HSV-1 Patton): 7.7 µM | IC50 (HSV-2 35D): 5 µM | IC50 (HSV-1 DJL): 1.8 µM | IC50 [1]: 6.2 µM | IC50 (HSV-2 186): 3.2 µM | IC50 (HSV-1 KOS-M1 (V823A)): > 50 µM | IC50 (HSV-2 MS-M1 (V826A)): > 50 µM | IC50 (HCMV AD169): 1.5 µM | IC50 (HSV-1 KOS; Table 1, plaque reduction, Vero cells, read-out: IC50 (uM), HSV-1 KOS): 3.2 µM | IC50 (HSV-1 KOS; Table 5, wild type strain, read-out: Plaque Reduction Assay - IC50 (μM) HSV-1 KOS): 4 µM | IC50 (HSV-1 F): 2.2 µM | IC50 (HSV-2 MS; Table 1, plaque reduction, Vero cells, read-out: IC50 (uM), HSV-2 MS): 2.8 µM | IC50 (HSV-2 MS; Table 5, wild type strain, read-out: Plaque Reduction Assay - IC50 (μM) HSV-2 MS): 0.8 µM
